From paper PMC6572064, “Discovery of 2-(1-(3-(4-Chloroxyphenyl)-3-oxo- propyl)pyrrolidine-3-yl)-1H-benzo[d]imidazole-4-carboxamide: A Potent Poly(ADP-ribose) Polymerase (PARP) Inhibitor for Treatment of Cancer” (Molecules, 2019)
Where two headings read alike, the source gives them in different places.

How the values were obtained:
[1] = tested on: MDA-MB-436 (a BRCA-1-mutated breast cancer cell line); assay: Cell proliferation assay, three-day, CellTiter-Glo, MDA-MB-436; assay type: cell-based; conditions: Homo sapiens; for inhibition at 0.00508 µM: MDA-MB-436, MDA-MB-436, Conc. 0.00508 uM; for inhibition at 0.0152 µM: MDA-MB-436, MDA-MB-436, Conc. 0.0152 uM; for inhibition at 0.0457 µM: MDA-MB-436, MDA-MB-436, Conc. 0.0457 uM; for inhibition at 0.41 µM: MDA-MB-436, MDA-MB-436, Conc. 0.41 uM; for inhibition at 1.23 µM: MDA-MB-436, MDA-MB-436, Conc. 1.23 uM; for inhibition at 3.7 µM: MDA-MB-436, MDA-MB-436, Conc. 3.70 uM; for inhibition at 11.11 µM: MDA-MB-436, MDA-MB-436, Conc. 11.11 uM; for inhibition at 33.33 µM: MDA-MB-436, MDA-MB-436, Conc. 33.33 uM; for inhibition at 100 µM: MDA-MB-436, MDA-MB-436, Conc. 100.00 uM; for IC50: MDA-MB-436, 72 h, CellTiter-Glo, read-out: MDA-MB-436 IC50
Summary of the method: (§1)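 Cells seeded overnight in 384-well plates, then exposed to compounds (DMSO stock diluted in medium) for 72 h at 37 °C, 5% CO2. Viability read as CellTiter-Glo luminescence after 60 min at room temperature.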

[2] = tested on: CAPAN-1 (a BRCA-2-mutated pancreatic cancer cell line); assay: Cell proliferation assay, three-day, CellTiter-Glo, CAPAN-1; assay type: cell-based; conditions: for IC50 / inhibition at 0.00508 µM / inhibition at 0.0152 µM / inhibition at 0.0457 µM / inhibition at […] / inhibition at 0.41 µM / inhibition at 1.23 µM / inhibition at 3.7 µM / inhibition at 11.11 µM / inhibition at 33.33 µM / inhibition at 100 µM: Homo sapiens; for IC50: CAPAN-1, read-out: CAPAN-1 IC50; for inhibition at 0.00508 µM: CAPAN-1, Conc. 0.00508 uM; for inhibition at 0.0152 µM: CAPAN-1, Conc. 0.0152 uM; for inhibition at 0.0457 µM: CAPAN-1, Conc. 0.0457 uM; for inhibition at […]: CAPAN-1, Conc. 0.14 uM; for inhibition at 0.41 µM: CAPAN-1, Conc. 0.41 uM; for inhibition at 1.23 µM: CAPAN-1, Conc. 1.23 uM; for inhibition at 3.7 µM: CAPAN-1, Conc. 3.70 uM; for inhibition at 11.11 µM: CAPAN-1, Conc. 11.11 uM; for inhibition at 33.33 µM: CAPAN-1, Conc. 33.33 uM; for inhibition at 100 µM: CAPAN-1, Conc. 100.00 uM
Summary of the method: as §1

[3] = molecular target: T1, PARP-2 (Homo sapiens, UniProt Q9UGN5); assay: PARP-2 inhibition assay (PARP-2 Chemiluminescent Assay Kit, BPS Bioscience); assay type: biochemical
T1 construct: purchased BPS Bioscience 80552
Description: (§2) The PARP-1 and PARP-2 inhibition assays were performed in outsourcing, by a CRO company, Shanghai Medicilon Inc. (Shanghai, China). […] Briefly, PARP-1 or PARP-2 biotinylated substrate was incubated with compounds or solvent control at varying concentrations and an assay buffer containing the PARP-1 or PARP-2 enzyme.

[4] = molecular target: T2, PARP-1 (Homo sapiens, UniProt P09874); assay: PARP-1 inhibition assay (PARP-1 Chemiluminescent Assay Kit, BPS Bioscience); assay type: biochemical
T2 construct: purchased BPS Bioscience 80569
Description: as §2

T1 sequence (Q9UGN5 whole entry): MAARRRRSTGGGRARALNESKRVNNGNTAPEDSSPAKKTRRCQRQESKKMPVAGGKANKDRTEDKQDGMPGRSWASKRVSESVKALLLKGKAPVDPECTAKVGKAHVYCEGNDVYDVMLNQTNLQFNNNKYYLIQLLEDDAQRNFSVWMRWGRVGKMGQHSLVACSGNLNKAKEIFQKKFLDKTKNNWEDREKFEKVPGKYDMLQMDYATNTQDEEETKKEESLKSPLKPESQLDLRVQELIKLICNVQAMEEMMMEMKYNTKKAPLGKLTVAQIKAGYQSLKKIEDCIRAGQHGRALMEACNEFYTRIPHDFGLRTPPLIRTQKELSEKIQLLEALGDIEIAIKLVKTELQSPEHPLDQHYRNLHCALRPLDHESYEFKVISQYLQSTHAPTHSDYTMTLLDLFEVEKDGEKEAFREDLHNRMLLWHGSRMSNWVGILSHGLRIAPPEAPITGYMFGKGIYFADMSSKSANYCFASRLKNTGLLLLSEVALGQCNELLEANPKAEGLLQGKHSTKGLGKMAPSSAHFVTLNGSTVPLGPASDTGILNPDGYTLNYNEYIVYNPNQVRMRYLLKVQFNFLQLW
T2 sequence (P09874 whole entry): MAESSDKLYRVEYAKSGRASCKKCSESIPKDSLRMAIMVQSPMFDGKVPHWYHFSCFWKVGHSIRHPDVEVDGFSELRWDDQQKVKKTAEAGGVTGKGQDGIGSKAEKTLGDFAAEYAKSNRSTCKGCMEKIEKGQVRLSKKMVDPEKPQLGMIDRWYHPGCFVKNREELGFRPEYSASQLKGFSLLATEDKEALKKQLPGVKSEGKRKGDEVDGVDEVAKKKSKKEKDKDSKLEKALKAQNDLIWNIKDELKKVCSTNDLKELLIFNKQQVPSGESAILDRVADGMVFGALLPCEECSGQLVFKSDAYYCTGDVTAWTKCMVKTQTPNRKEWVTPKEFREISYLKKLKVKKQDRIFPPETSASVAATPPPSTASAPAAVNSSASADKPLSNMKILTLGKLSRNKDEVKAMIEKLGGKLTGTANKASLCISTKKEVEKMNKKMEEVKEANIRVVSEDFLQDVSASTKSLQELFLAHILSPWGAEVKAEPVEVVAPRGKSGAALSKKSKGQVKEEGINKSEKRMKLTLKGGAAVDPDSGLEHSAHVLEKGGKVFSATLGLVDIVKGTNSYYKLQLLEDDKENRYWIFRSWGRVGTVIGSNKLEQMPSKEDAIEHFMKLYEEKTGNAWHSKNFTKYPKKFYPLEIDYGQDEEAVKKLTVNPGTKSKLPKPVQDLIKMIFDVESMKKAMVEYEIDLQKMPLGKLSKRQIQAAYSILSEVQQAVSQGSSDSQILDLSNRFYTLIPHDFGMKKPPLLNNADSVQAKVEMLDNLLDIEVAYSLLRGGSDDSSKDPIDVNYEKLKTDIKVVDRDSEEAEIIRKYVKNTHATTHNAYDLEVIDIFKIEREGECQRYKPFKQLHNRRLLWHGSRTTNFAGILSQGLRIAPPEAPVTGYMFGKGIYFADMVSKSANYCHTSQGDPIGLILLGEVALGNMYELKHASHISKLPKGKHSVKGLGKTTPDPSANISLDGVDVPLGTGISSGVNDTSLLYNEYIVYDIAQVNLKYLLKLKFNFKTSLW

Question: What does the source list for `NC(=O)c1cccc2[nH]c(C3CCN(CCNC(=O)c4ccccc4)C3)nc12` (stereo not drawn) [Compound 5co, 2-(1-(2-Benzamidoethyl)pyrrolidin-3-yl)-1H-benzo[d]imidazole-4-carboxamide]?
Answer: inhibition at 0.00508 µM ([1]; replicate 1, read-out: Inh % 1): 0.116%; inhibition at 0.00508 µM ([1]; replicate 2, read-out: Inh % 2): -6.8%; inhibition at 0.0152 µM ([1]; replicate 1, read-out: Inh % 1): 3.3%; inhibition at 0.0152 µM ([1]; replicate 2, read-out: Inh % 2): -2.8%; inhibition at 0.0457 µM ([1]; replicate 1, read-out: Inh % 1): -7.2%; inhibition at 0.0457 µM ([1]; replicate 2, read-out: Inh % 2): -12.8%; inhibition at 0.41 µM ([1]; replicate 1, read-out: Inh % 1): -3.1%; inhibition at 0.41 µM ([1]; replicate 2, read-out: Inh % 2): -1.7%; inhibition at 1.23 µM ([1]; replicate 1, read-out: Inh % 1): 5.2%; inhibition at 1.23 µM ([1]; replicate 2, read-out: Inh % 2): -9.2%; inhibition at 3.7 µM ([1]; replicate 1, read-out: Inh % 1): -2%; inhibition at 3.7 µM ([1]; replicate 2, read-out: Inh % 2): -0.8%; inhibition at 11.11 µM ([1]; replicate 1, read-out: Inh % 1): 2.4%; inhibition at 11.11 µM ([1]; replicate 2, read-out: Inh % 2): -2.7%; inhibition at 33.33 µM ([1]; replicate 1, read-out: Inh % 1): 15.5%; inhibition at 33.33 µM ([1]; replicate 2, read-out: Inh % 2): 10.6%; inhibition at 100 µM ([1]; replicate 1, read-out: Inh % 1): 25.7%; inhibition at 100 µM ([1]; replicate 2, read-out: Inh % 2): 18.3%; IC50 [1]: > 100 µM; IC50 ([2]; 72 h, CellTiter-Glo): > 100 µM; inhibition at 0.00508 µM ([2]; replicate 1, read-out: Inh % 1): -4.9%; inhibition at 0.00508 µM ([2]; replicate 2, read-out: Inh % 2): -7.9%; inhibition at 0.0152 µM ([2]; replicate 1, read-out: Inh % 1): 7.4%; inhibition at 0.0152 µM ([2]; replicate 2, read-out: Inh % 2): -1.7%; inhibition at 0.0457 µM ([2]; replicate 1, read-out: Inh % 1): 10.8%; inhibition at 0.0457 µM ([2]; replicate 2, read-out: Inh % 2): 10.6%; inhibition at […] ([2]; replicate 1, read-out: Inh % 1): 5.7%; inhibition at […] ([2]; replicate 2, read-out: Inh % 2): 0.8%; inhibition at 0.41 µM ([2]; replicate 1, read-out: Inh % 1): 7.1%; inhibition at 0.41 µM ([2]; replicate 2, read-out: Inh % 2): 6.9%; inhibition at 1.23 µM ([2]; replicate 1, read-out: Inh % 1): 9.2%; inhibition at 1.23 µM ([2]; replicate 2, read-out: Inh % 2): 5%; inhibition at 3.7 µM ([2]; replicate 1, read-out: Inh % 1): 25%; inhibition at 3.7 µM ([2]; replicate 2, read-out: Inh % 2): 11.1%; inhibition at 11.11 µM ([2]; replicate 1, read-out: Inh % 1): 17.9%; inhibition at 11.11 µM ([2]; replicate 2, read-out: Inh % 2): -1.4%; inhibition at 33.33 µM ([2]; replicate 1, read-out: Inh % 1): 16%; inhibition at 33.33 µM ([2]; replicate 2, read-out: Inh % 2): 13.7%; inhibition at 100 µM ([2]; replicate 1, read-out: Inh % 1): 29.2%; inhibition at 100 µM ([2]; replicate 2, read-out: Inh % 2): 25.9%; inhibition at 0.01 µM ([3]; 10 nM compound, supplement sheet, read-out: 10 nM inhibition% PAPR-2): 66.2%; inhibition at 0.01 µM ([3]; 10 nM compound, read-out: PARP-2 Inhibition % (10 nM)): 66.2%; IC50 ([3]; read-out: PARP-2 IC50): 0.0057 µM; IC50 ([3]; supplement sheet, read-out: IC50 PAPR-2): 0.00567 µM; inhibition at 0.01 µM ([4]; 10 nM compound, supplement sheet, read-out: 10 nM inhibition% PAPR-1): 38.4%; inhibition at 0.01 µM ([4]; 10 nM compound, read-out: PARP-1 Inhibition % (10 nM)): 38.4%; IC50 ([4]; read-out: PARP-1 IC50): 0.0111 µM

Question: What does the source list for `C[C@]1(c2nc3c(C(N)=O)cccc3[nH]2)CCCN1` [pc1, Veliparib, reference compound]?
Answer: inhibition at 0.00508 µM ([1]; replicate 1, read-out: Inh % 1): 0.064%; inhibition at 0.00508 µM ([1]; replicate 2, read-out: Inh % 2): -7.5%; inhibition at 0.0152 µM ([1]; replicate 1, read-out: Inh % 1): -2.6%; inhibition at 0.0152 µM ([1]; replicate 2, read-out: Inh % 2): -6.6%; inhibition at 0.0457 µM ([1]; replicate 1, read-out: Inh % 1): -7.5%; inhibition at 0.0457 µM ([1]; replicate 2, read-out: Inh % 2): -6.4%; inhibition at 0.41 µM ([1]; replicate 1, read-out: Inh % 1): -3.2%; inhibition at 0.41 µM ([1]; replicate 2, read-out: Inh % 2): -9.9%; inhibition at 1.23 µM ([1]; replicate 1, read-out: Inh % 1): -5.4%; inhibition at 1.23 µM ([1]; replicate 2, read-out: Inh % 2): -2.1%; inhibition at 3.7 µM ([1]; replicate 1, read-out: Inh % 1): -2.1%; inhibition at 3.7 µM ([1]; replicate 2, read-out: Inh % 2): 2.6%; inhibition at 11.11 µM ([1]; replicate 1, read-out: Inh % 1): 3.2%; inhibition at 11.11 µM ([1]; replicate 2, read-out: Inh % 2): 2.2%; inhibition at 33.33 µM ([1]; replicate 1, read-out: Inh % 1): 11.6%; inhibition at 33.33 µM ([1]; replicate 2, read-out: Inh % 2): 7.4%; inhibition at 100 µM ([1]; replicate 1, read-out: Inh % 1): 34.3%; inhibition at 100 µM ([1]; replicate 2, read-out: Inh % 2): 20.3%; IC50 [1]: > 100 µM; CAPAN-1 IC50 (μM) ([2]; 72 h, CellTiter-Glo): low potency; LogIC50 ([2]; CAPAN-1, curve-fit output, concentration axis Log (uM)): 2.067; IC50 ([2]; 72 h, CellTiter-Glo): > 100 µM; inhibition at 0.00508 µM ([2]; replicate 1, read-out: Inh % 1): -10.6%; inhibition at 0.00508 µM ([2]; replicate 2, read-out: Inh % 2): 3.8%; inhibition at 0.0152 µM ([2]; replicate 1, read-out: Inh % 1): -2.1%; inhibition at 0.0152 µM ([2]; replicate 2, read-out: Inh % 2): -6.9%; inhibition at 0.0457 µM ([2]; replicate 1, read-out: Inh % 1): -0.346%; inhibition at 0.0457 µM ([2]; replicate 2, read-out: Inh % 2): 3%; inhibition at […] ([2]; replicate 1, read-out: Inh % 1): 9.5%; inhibition at […] ([2]; replicate 2, read-out: Inh % 2): 7.1%; inhibition at 0.41 µM ([2]; replicate 1, read-out: Inh % 1): 7.8%; inhibition at 0.41 µM ([2]; replicate 2, read-out: Inh % 2): -1.8%; inhibition at 1.23 µM ([2]; replicate 1, read-out: Inh % 1): -10.7%; inhibition at 1.23 µM ([2]; replicate 2, read-out: Inh % 2): -7.2%; inhibition at 3.7 µM ([2]; replicate 1, read-out: Inh % 1): -17.8%; inhibition at 3.7 µM ([2]; replicate 2, read-out: Inh % 2): -16.7%; inhibition at 11.11 µM ([2]; replicate 1, read-out: Inh % 1): 5%; inhibition at 11.11 µM ([2]; replicate 2, read-out: Inh % 2): 7.2%; inhibition at 33.33 µM ([2]; replicate 1, read-out: Inh % 1): 12.5%; inhibition at 33.33 µM ([2]; replicate 2, read-out: Inh % 2): 11.9%; inhibition at 100 µM ([2]; replicate 1, read-out: Inh % 1): 43.2%; inhibition at 100 µM ([2]; replicate 2, read-out: Inh % 2): 42.4%; inhibition at 0.01 µM ([3]; read-out: 10 nM inhibition% PAPR-2): 78.3%; inhibition at 0.01 µM ([3]; read-out: PARP-2 Inhibition % (10 nM)): 78.3%; inhibition at 0.01 µM ([4]; read-out: 10 nM inhibition% PAPR-1): 54.3%; inhibition at 0.01 µM ([4]; read-out: PARP-1 Inhibition % (10 nM)): 63.7%
